Experimental data: patent US20090325923A1, “NEW METHOD FOR THE TREATMENT OF INFLAMMATORY DISEASES” (TOPOTARGET SWITZERLAND SA, priority 2006, published 2009)

Legend:
[1] = test system: human peripheral blood mononuclear cells (PBMC); experiment: LPS-stimulated TNF and IL-6 secretion by ELISA in PBMC; format: cell-based; conditions: overnight increasing doses of FK866, LPS 6 h
Procedure: (§1) Human monocytic cell line THP-1, human peripheral blood mononuclear cells (PBMC), human monocyte-derived dendritic cells, or mouse peritoneal macrophages were isolated and cultured overnight with increasing doses of FK866, and then stimulated with LPS for 6 h. The culture supernatants were tested for TNF and IL-6 content by ELISA
as §1, with “This example describes the inhibition of pro-inflammatory cytokines production by the competitive small molecular weight compound inhibitor of NMPRT, ((E)-N-[4-(1-benzoylpiperidin-4-yl)butyl]-3-(pyridin-3-yl)acrylamide, designated FK866). Human” for “Human”, “ELISA.” for “ELISA”

[2] = test system: Peritoneal exudates cells (PEC); experiment: Intracellular NAD in thioglycollate-elicited peritoneal exudate cells in vivo; parameters: species or system mouse
Procedure: Mice were treated with thioglycollate to elicit PEC, and then received 10 mg/kg FK866 by ip injection. PEC were obtained by lavage after different time points and intracellular NAD was determined. Data are mean±sem of 3 mice per group.
(§2) Mice were treated with thioglycollate to elicit PEC, and then received 10 mg/kg FK866 or placebo by ip injection 7 h before ip challenge with LPS. Mean serum TNFα at 90 min+sem of 3 mice per group is shown. PEC were obtained by lavage and intracellular NAD was determined. Data are mean±sem of 3 mice per group.
This example illustrates that FK866 reduces intracellular NAD level in inflammatory cells in vivo. Naïve mice were treated ip with thioglycollate to elicit inflammatory cells, and then FK866 was administered ip at 10 mg/kg. Peritoneal exudates cells (PEC) were obtained by lavage at different time points after treatment, and intracellular NAD levels were determined using an enzymatic assay.
(§3) This example illustrates that NAMPT inhibition reduces circulating TNFα during endotoxemia and correlates with diminished intracellular NAD in inflammatory cells. Naïve mice were treated ip with thioglycollate to elicit inflammatory cells, and then were treated ip with placebo or 10 mg/kg FK866 7 h before an intraperitoneal injection of LPS. Mice were bled 90 min later for evaluation of serum TNFα levels.

[3] = test system: mouse peritoneal macrophages; experiment: LPS-stimulated TNF and IL-6 secretion by ELISA in peritoneal macrophages; format: cell-based; conditions: overnight increasing doses of FK866, LPS 6 h
Procedure: as §1
as §1, with “This example describes the inhibition of pro-inflammatory cytokines production by the competitive small molecular weight compound inhibitor of NMPRT, ((E)-N-[4-(1-benzoylpiperidin-4-yl)butyl]-3-(pyridin-3-yl)acrylamide, designated FK866). Human” for “Human”, “ELISA.” for “ELISA”

TNFα = experiment: Serum TNFα after LPS challenge (endotoxemia); format: in vivo, mouse; conditions: 10 mg/kg ip 7 h before ip LPS, bled 90 min later, vs placebo
Procedure: as §2, §3

[4] = Toxicity and tolerability in treated CIA mice (weight, histopathology, ALT, hematology); format: in vivo, mouse
Procedure: Test mice (n=20) were twice daily treated ip with 10 mg/kg of FK866 from the first day onward of appearance of clinical arthritis (clinical score>1) during 14 days. Placebo mice (n=20) received vehicle only. Groups of animals were compared with respect to variation of their clinical scoring, and of their weight (d) by statistical analysis using the two-way ANOVA. A semi-quantitative histological evaluation was performed on the knee sections using a 4 points (0-3) scoring system to evaluate inflammatory infiltrate and synovial hyperplasia. (c) Circulating SAA levels: Sera from placebo- and FK866-treated CIA mice at day 14 (n=8 and n=7, respectively) were prepared and analyzed by SAA ELISA according to the manufacturer's instructions.

[5] = test system: collagen-induced arthritis; experiment: Collagen-induced arthritis (CIA) mouse model; format: in vivo
RAW264.7 cell line = experiment: LPS-stimulated TNF secretion by ELISA in RAW264.7 cells; format: cell-based, mouse
Procedure: The murine RAW264.7 cell line was stimulated with LPS in the presence of FK866. TNF protein concentrations were determined by ELISA (above panel) while mRNA levels were determined by RT-PCR (below panel).
(§4) (A) The mouse macrophage cell line RAW264.7 was cultured overnight with increasing doses of FK866, and then stimulated with LPS for 2 h. The culture supernatants were tested for TNF content by ELISA and intracellular NAD levels were measured by an enzymatic assay.
(§5) (B) RAW264.7 cells were cultured overnight in the presence of FK866 and the intracellular pool of NAD was restored by co-incubation of the cells with nicotinic acid (NA). Cells were then stimulated with LPS for 2 h and the culture supernatant was tested for TNF content by ELISA.
(C) RAW264.7 cells were cultured overnight in the presence of FK866 and NAD levels were maintained by culturing the cells in the presence of extracellular NAD. Cells were then stimulated with LPS for 2 h and the culture supernatant was tested for TNF content by ELISA.
This example illustrates that FK866 inhibits TNFα secretion at a posttranscriptional level. The murine RAW 264.7 cell line was incubated in the presence of graded doses of FK866, stimulated with microbial products, and levels of TNFα released in the supernatant evaluated by ELISA.
as §4, with “This example illustrates the correlation between proinflammatory cytokine secretion and NAD levels in the cell.” for “(A)”
as §5, with “In another experiment,” for “(B)”, “nicotinic acid. Nicotinic” for “nicotinic”, “is a precursor of NAD, but its transformation into NAD is not dependent upon NMPRT and is thus not inhibited by FK866.” for “(NA).”
In another experiment, RAW264.7 cells were cultured overnight in the presence of FK866 and NAD levels were maintained by culturing the cells in the presence: of extra-cellular NAD. Cells were then stimulated with LPS for 2 h and the culture supernatant was tested for TNF content by ELISA.

[6] = 10 mg/kg ip twice daily, 14 days, 0-3 histological score, vs placebo
[7] = CIA mice, end of the experiment

SMILES: O=C(/C=C/c1cccnc1)NCCCCC1CCN(C(=O)c2ccccc2)CC1 [FK866, (E)-N-[4-(1-benzoylpiperidin-4-yl)butyl]-3-(pyridine-3-yl)-acrylamide]
- cytokine secretion (TNF and IL-6) [1]: inhibited cytokine secretion in a dose-dependent fashion
- time of NAD nadir after injection ([2]; 10 mg/kg ip): 9 h
- time of NAD recovery after injection ([2]; 10 mg/kg ip): around 14 h
- intracellular NAD in PECs ([2]; 10 mg/kg ip 7 h before ip LPS, same mice, vs placebo): significant decrease
- intracellular NAD in PEC (macrophages) in vivo ([2]; 10 mg/kg ip, lavage at different time points): significant time-dependent NAD depletion
- cytokine secretion (TNF and IL-6) [3]: inhibited cytokine secretion in a dose-dependent fashion
- circulating (serum) TNFα levels (TNFα): significant decrease
- tolerability ([4]; CIA mice, 10 mg/kg ip twice daily): well tolerated
- signs of toxicity ([4]; CIA mice, 10 mg/kg ip twice daily, 14 days): no signs of toxicity
- % LYMPHO, mean ([4]; hematology of treated CIA mice): 60%
- % MONO, mean ([4]; hematology of treated CIA mice): 10.4%
- % NEUTRO, mean ([4]; hematology of treated CIA mice): 29.7%
- HCT, mean ([4]; hematology of treated CIA mice): 52.8%
- HGB, mean ([4]; hematology of treated CIA mice): 14.1 g/dL
- PLT, mean ([4]; hematology of treated CIA mice): 1688 10^3/mm^3
- RBC, mean ([4]; hematology of treated CIA mice): 9.4 10^3/mm^3
- WBC, mean ([4]; hematology of treated CIA mice): 11.5 10^6/mm^3
- weight of the mice ([4]; placebo- vs FK866-treated groups): comparable
- premature death ([4]; treated group): no premature death
- hematological examination ([4]; treated vs control mice): similarity between the treated and control mice
- histopathology of liver, spleen, lung, gut, kidney, inguinal lymph nodes and brain ([4]; vs control animals): no different from control animals
- inflammatory infiltrate in knee joint sections [5, 6]: statistically significant decrease
- synovial hyperplasia in knee joint sections [5, 6]: statistically significant decrease
- histology of knees and paws ([5]; 10 mg/kg ip twice daily, 14 days, vs placebo): much less inflammation
- paw inflammation ([5]; 10 mg/kg ip twice daily, after 2 weeks of treatment, vs placebo): minimal signs of inflammation
- effect on established CIA (dose-response) ([5]; 2, 5 or 10 mg/kg ip twice daily for 15 days): marked protective dose-dependent effect
- IL-1β in paw tissue extracts [5, 7]: significantly reduced
- IL-6 in paw tissue extracts [5, 7]: significantly reduced
- IL-10 secretion in paw tissue extracts [5, 7]: remained unchanged
- MCP-1 in paw tissue extracts [5, 7]: decreased
- symptoms of arthritis (clinical score) ([5]; DBA/1 mice, 10 mg/kg ip twice daily for 15 days from clinical score ≧1): ameliorates the symptoms of arthritis
- severity of arthritis in CIA mice ([5]; FK866 10 mg/kg ip twice daily or etanercept 15 mg/kg every three days, over 15 days): activity similar to etanercept
- time until beneficial effect apparent after commencement of treatment ([5]; established CIA): ≤ 10 days
- dose of maximal therapeutic effect on CIA ([5]; ip twice daily for 15 days): 10 mg/kg
- Serum amyloid A protein (SAA) levels ([5]; sera of CIA mice at day 14, ELISA, vs placebo): decreased
- TNFα secretion (RAW264.7 cell line; RAW 264.7, graded doses of FK866, stimulated with LPS, ELISA): strongly inhibited
- TNF production (RAW264.7 cell line; RAW264.7, overnight increasing doses of FK866, LPS 2 h): inhibition of TNF production
